In one assay the target is T1, PKC epsilon (Homo sapiens, UniProt Q02156).
T1 construct: purchased Invitrogen P2282
T1 sequence (Q02156 1-737): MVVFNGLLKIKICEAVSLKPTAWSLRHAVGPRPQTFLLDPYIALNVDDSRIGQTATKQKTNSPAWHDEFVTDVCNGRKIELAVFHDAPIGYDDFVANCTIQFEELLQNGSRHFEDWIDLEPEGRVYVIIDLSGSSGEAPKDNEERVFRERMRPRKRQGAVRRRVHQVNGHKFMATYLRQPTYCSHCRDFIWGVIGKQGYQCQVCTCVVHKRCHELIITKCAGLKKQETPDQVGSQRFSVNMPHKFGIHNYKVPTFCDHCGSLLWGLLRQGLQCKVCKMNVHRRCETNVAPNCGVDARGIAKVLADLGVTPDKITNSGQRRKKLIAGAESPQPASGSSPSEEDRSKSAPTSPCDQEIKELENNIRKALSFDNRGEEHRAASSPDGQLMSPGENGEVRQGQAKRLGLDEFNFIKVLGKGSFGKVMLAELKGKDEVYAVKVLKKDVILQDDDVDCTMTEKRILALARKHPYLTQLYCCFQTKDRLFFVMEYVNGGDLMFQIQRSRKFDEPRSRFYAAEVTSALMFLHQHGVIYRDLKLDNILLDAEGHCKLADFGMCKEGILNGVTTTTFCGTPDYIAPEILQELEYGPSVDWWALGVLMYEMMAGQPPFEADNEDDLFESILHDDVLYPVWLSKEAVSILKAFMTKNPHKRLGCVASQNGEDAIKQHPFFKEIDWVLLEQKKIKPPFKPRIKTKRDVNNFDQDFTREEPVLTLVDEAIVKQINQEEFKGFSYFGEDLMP
The assay is described as follows: Biochemical assay for PKC epsilon (fluorescence polarization, Protein Kinase C Assay Kit, Red). Conditions: read-out: IC50 μM PKCε. An outline of the steps: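 Read-out was fluorescence-polarization competition between phosphorylated substrate and a rhodamine PKC tracer for an anti-phosphoserine antibody, added with EDTA stop after an 80 min room-temperature kinase reaction with ATP and protein substrate (Mg2+/Ca2+ buffer). Enzyme (10 ng/ml final) was preincubated with compound for 30 min.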
In general terms: Fluorescence polarisation rises when a labelled molecule tumbles more slowly, as on binding a larger partner.

The next assay addresses T2, human ROCKα/ROCKII mix (Homo sapiens, UniProt O75116).
T2 construct: purchased Upstate Biotechnology 14-451
The assay is described as follows: Biochemical assay for ROCK (fluorescence polarization, ROCK IMAP Kit).

The mark [1] stands for this setting: Table 2, compounds of Formula XIII.
Setting [2] is: compounds of Formula XIV, Table 3.

Counter-ions that a name gives are not always drawn. Like-named read-outs stand apart in the source and are kept apart here. Where only a bound is given, the exact number is not on record here.

T2 sequence (O75116 11-552 limits assumed): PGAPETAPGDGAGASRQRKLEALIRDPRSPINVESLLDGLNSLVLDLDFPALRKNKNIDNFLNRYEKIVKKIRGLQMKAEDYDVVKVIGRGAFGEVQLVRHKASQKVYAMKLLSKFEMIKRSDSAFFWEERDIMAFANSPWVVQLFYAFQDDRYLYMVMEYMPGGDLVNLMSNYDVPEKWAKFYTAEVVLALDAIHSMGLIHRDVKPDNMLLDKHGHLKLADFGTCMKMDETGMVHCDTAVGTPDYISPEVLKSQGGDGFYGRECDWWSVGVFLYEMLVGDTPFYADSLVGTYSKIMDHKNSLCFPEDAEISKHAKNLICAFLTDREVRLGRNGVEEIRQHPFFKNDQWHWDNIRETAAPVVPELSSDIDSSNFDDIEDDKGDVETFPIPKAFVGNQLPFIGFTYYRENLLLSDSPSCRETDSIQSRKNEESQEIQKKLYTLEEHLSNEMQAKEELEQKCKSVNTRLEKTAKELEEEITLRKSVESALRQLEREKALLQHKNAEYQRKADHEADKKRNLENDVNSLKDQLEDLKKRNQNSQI

Regarding `CC(C)(C(=O)NCC(N)c1ccc(C(=O)Nc2ccncc2)cc1)c1ccc(Cl)c(Cl)c1` (centres unmarked) [Compound 380, 4-{1-Amino-2-[2-(3,4-dichloro-phenyl)-2-methyl-propionylamino]-ethyl}-N-pyridin-4-yl-benzamide], the IC50 (as a rule, the concentration at which inhibition is half-maximal) was below 0.05 µM at PKC epsilon (setting [1]) and 0.05 to 0.5 µM on human ROCKα/ROCKII mix (setting [1]).
`CN(CC(N)c1ccc(C(=O)Nc2ccncc2)cc1)C(=O)C1(c2ccc(Cl)cc2Cl)CC1` (centres unmarked) [Compound 495, 4-(1-Amino-2-{[1-(2,4-dichloro-phenyl)-cyclopropanecarbonyl]-methyl-amino}-ethyl)-N-pyridin-4-yl-benzamide]: the IC50 at PKC epsilon was in the range of 5 to 50 µM; on human ROCKα/ROCKII mix, 0.5 to 5 µM.
Turning to “4-[1-amino-2-(4-methyl- cyclohexylcarbamoyl)-ethyl]- N-pyridin-4-yl-benzamide [Compound 173]”, the IC50 lay within 0.5 to 5 µM on PKC epsilon (setting [2]) and 0.05 to 0.5 µM on human ROCKα/ROCKII mix (setting [2]).
With `NC(CC(=O)NCc1ccccc1OC(F)(F)F)c1ccc(C(=O)Nc2ccncc2)cc1` (centres unmarked) [Compound 269, 4-[1-Amino-2-(2-trifluoromethoxy-benzylcarbamoyl)-ethyl]-N-pyridin-4-yl-benzamide], the IC50 on PKC epsilon (setting [2]) is 0.5 to 5 µM; at human ROCKα/ROCKII mix (setting [2]), 0.05 to 0.5 µM.
Turning to `Cc1cccc(CNC(=O)CC(N)c2ccc(C(=O)Nc3ccncc3)cc2)c1` (centres unmarked) [Compound 232, 4-[1-Amino-2-(3-methyl-benzylcarbamoyl)-ethyl]-N-pyridin-4-yl-benzamide], the IC50 on PKC epsilon (setting [2]) lay in the range of 0.5 to 5 µM; on human ROCKα/ROCKII mix (setting [2]), 0.05 to 0.5 µM.
As for `Cc1ccc2[nH]cc(CCNC(=O)CC(N)c3ccc(C(=O)Nc4ccncc4)cc3)c2c1` (centres unmarked) [Compound 314, 4-{1-Amino-2-[2-(5-methyl-1H-indol-3-yl)-ethylcarbamoyl]-ethyl}-N-pyridin-4-yl-benzamide], the IC50 was in the range of 0.5 to 5 µM at PKC epsilon (setting [2]) and 0.05 to 0.5 µM at human ROCKα/ROCKII mix (setting [2]).
`CNS(=O)(=O)c1ccc(C(=O)NCC(N)c2ccc(C(=O)Nc3ccncc3)cc2)cc1` (centres unmarked) [Compound 98, 4-[1-amino-2-(4-methylsulfamoyl-benzoylamino)-ethyl]-N-pyridin-4-yl-benzamide]: the concentration for half-maximal inhibition (IC50) lay within 5 to 50 µM on PKC epsilon (setting [1]) and 0.5 to 5 µM against human ROCKα/ROCKII mix (setting [1]).
`Cc1cccc(C(=O)NCC(N)c2ccc(C(=O)Nc3ccncc3)cc2)c1` (centres unmarked) [Compound 85, 4-[1-amino-2-(3-methyl-benzoylamino)-ethyl]-N-pyridin-4-yl-benzamide]: the IC50 at PKC epsilon (setting [1]) and on human ROCKα/ROCKII mix (setting [1]) was 0.5 to 5 µM throughout.
With `CCN(CC)c1ccc(C(=O)NCC(N)c2ccc(C(=O)Nc3ccncc3)cc2)cc1` (centres unmarked) [Compound 81, 4-[1-amino-2-(4-diethylamino-benzoylamino)-ethyl]-N-pyridin-4-yl-benzamide], the IC50 on PKC epsilon (setting [1]) lay within 5 to 50 µM; against human ROCKα/ROCKII mix (setting [1]), 0.5 to 5 µM.
In the case of `CN(CC(N)c1ccc(C(=O)Nc2ccncc2)cc1)C(=O)Cc1ccc(F)cc1F` (centres unmarked) [Compound 479, 4-(1-Amino-2-{[2-(2,4-difluoro-phenyl)-acetyl]-methyl-amino}-ethyl)-N-pyridin-4-yl-benzamide], the figures for the IC50 on PKC epsilon and against human ROCKα/ROCKII mix were 5 to 50 µM and 0.5 to 5 µM, respectively.
With `N[C@H](CC(=O)NCc1ccc(F)cc1)c1ccc(C(=O)Nc2ccncc2)cc1` [Compound 401, 4-[(R)-1-Amino-2-(4-fluoro-benzylcarbamoyl)-ethyl]-N-pyridin-4-yl-benzamide dihydrochloric acid salt], the IC50 at PKC epsilon is below 0.05 µM; at human ROCKα/ROCKII mix, 0.05 to 0.5 µM.
On to `CN(CC(N)c1ccc(C(=O)Nc2ccncc2)cc1)C(=O)C1CCSc2ccccc21` (centres unmarked) [Compound 517, Thiochroman-4-carboxylic acid {2-amino-2-{4-(pyridin-4-ylcarbamoyl)-phenyl]-ethyl}-methyl-amide], for which the IC50 on PKC epsilon and at human ROCKα/ROCKII mix was 5 to 50 µM in each case.
On to `NC(CNC(=O)c1cc2cc(Cl)ccc2o1)c1ccc(C(=O)Nc2ccncc2)cc1` (centres unmarked) [Compound 134, 5-Chloro-benzofuran-2-carboxylic acid {2-amino-2-[4-(pyridin-4-ylcarbamoyl)-phenyl]-ethyl}-amide], for which the IC50 at PKC epsilon (setting [1]) lay within 5 to 50 µM; at human ROCKα/ROCKII mix (setting [1]), 0.5 to 5 µM.

The record behind these values is patent publication US20100168102A9, “Amide Derivatives as Kinase Inhibitors” (Devgen NV, priority 2005, published 2010).
